Values of other authors, collected in patent US20150290173A1, “TREATMENT OF SKIN OR MUCOSAL PATHOLOGY” (ZARZATECH, INC., priority 2012, published 2015).
Where a name gives a salt, the structure may show the parent alone.

Key:
[1] = dog gingivitis model
crevicular neutrophils = conditions: topical 0.5% oral rinse, humans

| Compound | gingival inflammation and gingival bleeding [1] | antibacterial function of crevicular neutrophils (crevicular neutrophils) | clinical benefit on gingivitis (crevicular neutrophils) | anti-gingivitis activity ([1]; dose response study) |
| --- | --- | --- | --- | --- |
| CN/C(=N/CCSCc1nc[nH]c1C)NC#N [cimetidine, Cimetidine] | significantly reduced gingival inflammation and gingival bleeding | enhanced antibacterial function of crevicular neutrophils | no clinical benefit on gingivitis |  |
| CN/C(=N/CCSCc1nc[nH]c1C)NC#N [cimetidine HCL] |  |  |  | significant anti-gingivitis activity that increased with increasing dose |
